US20260069653A1, “COMPLEMENT INHIBITOR DOSING REGIMENS” (Apellis Pharmaceuticals, Inc., priority 2021, published 2026)
Square brackets hold non-standard residues; d marks the D form. Trp(5-F) = N[C@@H](Cc1c[nH]c2ccc(F)cc12)C(=O)O; Trp(5-Me) = Cc1ccc2[nH]cc(C[C@H](N)C(=O)O)c2c1; Trp(6-F) = N[C@@H](Cc1c[nH]c2cc(F)ccc12)C(=O)O; Bpa = N[C@@H](Cc1ccc(C(=O)c2ccccc2)cc1)C(=O)O; 1Nal = N[C@@H](Cc1cccc2ccccc12)C(=O)O; 2Nal = N[C@@H](Cc1ccc2ccccc2c1)C(=O)O; Igl = N[C@H](C(=O)O)C1Cc2ccccc2C1

What was measured:
[1] = test system: complement activation; details: fold more active than compstatin amidated at the C-terminus; published data and assays; cited from earlier work
[2] = Safety of intensive dosing in PNH patients; type: in vivo, human; details: intensive PEG treatment
Text: (§1) Eligibility criteria for the intensive dosing regimen included lactate dehydrogenase (LDH) >2× the upper limit of normal (ULN) and one new or worsening sign or symptom of hemolysis (e.g., decreased hemoglobin (Hb), hemoglobinuria, or fatigue).
(§2) Patients who experienced additional acute hemolysis events after receiving intensive PEG treatment received additional doses of intensive SC PEG or intensive IV PEG. […] Analyzed data relates to the first event if a patient experienced multiple acute hemolysis events.
(§3) Levels of Hb (on day 1) and LDH (on day 1, day 2, days 7-12, days 14-19) during the event of acute hemolysis were determined. […] For each patient, at least 6 days were between the measurements on day 7-12 and day 14-19. Safety was evaluated by the incidence and severity of adverse events.

[3] = test system: C3a; assay: C3a levels (ELISA) after single IV infusion; type: in vivo, human
Description: C3a Split Product Testing: C3a was measured by ELISA (BD Pharmingen optEIA) using microtiter plates precoated with specific monoclonal antibodies against C3a. The standards, controls and test specimens were diluted and placed in duplicate into the wells and incubated to allow binding of the split products to the antibodies in the well. After washing away unbound proteins, a second anti-split products antibody, conjugated to an enzyme (horseradish peroxidase) was allowed to react with the split products bound to the first antibody on the plate. After an appropriate incubation time and washing, a chromogenic substrate for the enzyme was added to the wells, and the intensity of color that developed was determined spectrophotometrically. Three QC specimens were run on every assay.
C3a ELISA Calculations: The optical densities (OD) for each of the wells containing the standards for the assay were entered as the dependent variables (Y) in a linear regression calculation (Microsoft Excel) in which the concentrations of the standards (provided by the kit manufacturer, BD Pharmingen) were the independent variables (X). The slope (m) and intercept (b) obtained from the regression analysis on a log-log were then used to calculate the concentrations of the unknowns (controls and test specimens). The formula for a straight line was used to calculate the unknown values using a log/log solution: LnY=mLnX+b, solved for X: X=exp (LnY−b)/m*dilution.

[4] = Serum concentration of PEG after single IV infusion, ascending dose study; type: in vivo, human; details: for peak concentration (Cmax), mean serum concentration: healthy subjects
[5] = Safety in healthy volunteers, ascending dose study
Description: (§4) Subjects were monitored during a safety period from Day 2 to 8 by physical examination, ECG, hematology, serum chemistry, monitoring for injection site reaction and treatment emergent adverse events (TEAEs). Follow-up safety assessments were performed on Days 15, 22, 29, and 43.

[6] = test system: total complement hemolytic activity (CH50); assay: CH50 after single IV infusion; type: in vivo, human
[7] = test system: acute hemolysis; assay: Hemoglobin during intensive dosing for acute hemolysis in PNH patients; type: in vivo, human; details: patients with and without RBC transfusion (FIG. 6)
Text: as §1, §2, §3

[8] = test system: alternative complement pathway hemolytic activity (AH50); assay: AH50 hemolytic assay on serum after single IV infusion; type: in vivo, human
Description: AH50 Method: AH50 was measured by a hemolytic assay based on lysis of rabbit red blood cells (RA) due to activation of complement on the cell's surface. The AH50 (50% Alternative Complement Hemolytic dose) was determined for each component by adding a limiting amount of the test serum or plasma. For this assay, the buffers are created such as to block activity of the classical pathway, which requires calcium. Serial dilutions of the test specimen were mixed with equal volumes of the RA. This functional assay measured the amount of hemoglobin that was released when the target cells were lysed by the action of complement, and from this, the percentage of the cells that had been lysed was calculated. The major peak of the hemoglobin spectrum was read at 415 nm wavelength. For each assay the run was verified with a five-point standard and five points of characterized QC control.
AH50 Calculations: For verifiable continuity between assay runs, the AH50 assay was performed using a human serum standard with known AH50 activity. […] If the dilution series produced lysis that spanned the 50% point, the three points closest to the 50% point were used to determine the slope and intercept of the line by linear regression. If the percent lysis was very low and none of the dilutions produced 50% lysis, then the two highest points in the series were used, because the slope changes drastically as the sigmoid curve reaches its lower limit. Each specimen from the study was diluted in the same manner and individual 50% lysis points determined by linear regression.

[9] = test system: acute hemolysis; assay: LDH during intensive dosing for acute hemolysis in PNH patients; type: in vivo, human
Text: as §1, §2, §3

[10] = human, in vivo
Description: as §4

## Ac-ICV(Bpa)QDWGAHRCT-CONH2 (Ac-ICV[Bpa]QDWGAHRCT-NH2; not fully specified (bridges); printed as Ac-ICV(Bpa)QDWGAHRCT-CONH2; cysteine pairing not given here) [Ac-V4(Bpa)/H9A]
[1]
  Activity over compstatin: 86x

## Ac-ICVYQDWGAHRCT-CONH2 [Ac-V4Y/H9A]
[1]
  Activity over compstatin: 14x

## Ac-ICVWQD(5fW)GAHRCT-CONH2 (Ac-ICVWQD[Trp(5-F)]GAHRCT-NH2; not fully specified (bridges); printed as Ac-ICVWQD(5fW)GAHRCT-CONH2; cysteine pairing not given here) [Ac-V4W/W7(5fW)/H9A]
[1]
  Activity over compstatin: 121x

## Ac-ICV(2-Igl)QDWGAHRCT-CONH2 (Ac-ICV[Igl]QDWGAHRCT-NH2; not fully specified (bridges); printed as Ac-ICV(2-Igl)QDWGAHRCT-CONH2; cysteine pairing not given here) [Ac-V42Igl/H9A]
[1]
  Activity over compstatin: 39x

## Ac-ICVVQDWGHHRCT-CONH2 [Ac-compstatin]
[1]
  Activity over compstatin: 3x

## H-GICV(5fW)QD(5fW)GAHRCTN-COOH (H-GICV[Trp(5-F)]QD[Trp(5-F)]GAHRCTN-OH; not fully specified (bridges); cysteine pairing not given here) [G/V4(5f-WV)/WV7(5fW)/H9A+N-OH]
[1]
  Activity over compstatin: 112x

## Ac-ICV(5fW)QDWGAHRCT-CONH2 (Ac-ICV[Trp(5-F)]QDWGAHRCT-NH2; not fully specified (bridges); printed as Ac-ICV(5fW)QDWGAHRCT-CONH2; cysteine pairing not given here) [Ac-V4(5fW)/H9A]
[1]
  Activity over compstatin: 31x

## Ac-ICV(2-Igl)QDWGAHRCT-COOH (Ac-ICV[Igl]QDWGAHRCT-OH; not fully specified (bridges); printed as Ac-ICV(2-Igl)QDWGAHRCT-COOH; cysteine pairing not given here) [Ac-V42Igl/H9A-OH]
[1]
  Activity over compstatin: 37x

## Ac-ICV(5-methyl-W)QDWGAHRCT-CONH2 (Ac-ICV[Trp(5-Me)]QDWGAHRCT-NH2; not fully specified (bridges); printed as Ac-ICV(5-methyl-W)QDWGAHRCT-CONH2; cysteine pairing not given here) [Ac-V4(5-MeW)/H9A]
[1]
  Activity over compstatin: 67x

## Ac-ICV[(2-Nal)QDWGAHRCT-COOH (Ac-ICV[2Nal]QDWGAHRCT-OH; not fully specified (bridges); printed as Ac-ICV[(2-Nal)QDWGAHRCT-COOH; cysteine pairing not given here) [Ac V4(2-Nal)/H9A-OH]
[1]
  Activity over compstatin: 38x

## Ac-ICVWQDWGAHRCT-CONH2 (Ac-ICVWQDWGAHRCT-NH2; not fully specified (bridges); printed as Ac-ICVWQDWGAHRCT-CONH2; cysteine pairing not given here) [Ac-V4W/H9A]
[1]
  Activity over compstatin: 45x

## Ac-ICVWQDWGAHRCdT-COOH [Ac-V4W/H9A/T13dT-OH]
[1]
  Activity over compstatin: 55x

## Ac-ICV(2-Nal)QDWGAHRCT-CONH2 (Ac-ICV[2Nal]QDWGAHRCT-NH2; not fully specified (bridges); printed as Ac-ICV(2-Nal)QDWGAHRCT-CONH2; cysteine pairing not given here) [Ac-V4(2-Nal)/H9A]
[1]
  Activity over compstatin: 99x

## Ac-ICV(Bpa)QDWGAHRCT-COOH (Ac-ICV[Bpa]QDWGAHRCT-OH; not fully specified (bridges); printed as Ac-ICV(Bpa)QDWGAHRCT-COOH; cysteine pairing not given here) [Ac-V4(Bpa)/H9A-OH]
[1]
  Activity over compstatin: 49x

## Ac-ICV(1-Nal)QDWGAHRCT-COOH (Ac-ICV[1Nal]QDWGAHRCT-OH; not fully specified (bridges); printed as Ac-ICV(1-Nal)QDWGAHRCT-COOH; cysteine pairing not given here) [Ac V4(1-Nal)/H9A-OH]
[1]
  Activity over compstatin: 30x

## Poly(oxy-1,2-ethanediyl), α-hydro-ω-hydroxy-, 15,15′-diester with N-acetyl-L-isoleucyl-L-cysteinyl-L-valyl-1-methyl-L-tryptophyl-L-glutaminyl-L-α-aspartyl-L-tryptophylglycyl-L-alanyl-L-histidyl-L-arginyl-L-cysteinyl-L-threonyl-2-[2-(2-aminoethoxy)ethoxy]acetyl-N^6-carboxy-L-lysinamide cyclic (2-->12)-(disulfide) [PEG]
[2]; 4 of 13 patients
  patients with serious adverse events: 31%
[2]; Nine of 13 patients
  patients with treatment-emergent adverse events: 69%
[2]
  adverse events leading to treatment discontinuation: None of the adverse events led to treatment discontinuation
  adverse events of meningitis or thrombosis: No adverse events of meningitis or thrombosis occurred
  share of treatment-emergent adverse events that were mild: 76%
[3]; all PEG groups
  time within which initial rapid decrease in mean C3a levels occurred: ≤ 1 h
[3]; all dose groups
  time of trough mean C3a levels after dosing: ≤ 24 h
[3]; single IV 1500 mg, at 4 hours post-dosing start
  maximum mean C3a decrease from baseline: 57%
[4]; Cohort 4 (2300 mg single IV)
  terminal elimination half-life: 11.9 days
[4]; single IV 200 mg, at 1 hr post-dose (infusion start)
  peak concentration (Cmax), mean serum concentration: 61 µg/mL
[4]; single IV 600 mg, at 1 hr post-dose (infusion start)
  peak concentration (Cmax), mean serum concentration: 193 µg/mL
[4]; single IV 1500 mg, at 4 hrs
  peak concentration (Cmax), mean serum concentration: 542 µg/mL
[4]; single IV 2300 mg, at 1 hr post-dose (infusion start)
  peak concentration (Cmax), mean serum concentration: 708 µg/mL
[5]; 2300 mg cohort, one subject, percent of the twenty subjects
  subjects with moderate TEAE (infusion-related reaction, dizziness, clamminess, nausea) that led to study discontinuation: 5.0%
[5]; PEG groups, n=2
  incidence of diarrhea (TEAE): 12.5%
[5]; PEG groups, n=6
  incidence of headache (TEAE): 37.5%
[5]; healthy subjects, single IV 200-2300 mg
  serious adverse events, deaths, severe TEAEs: No serious adverse events, deaths, or severe TEAEs occurred
[6]; all cohorts
  Mean CH50 upon dosing: decreased immediately
[6]; single IV 1500 mg
  time for which decrease in mean CH50 was retained: at least 48 hours
[6]; single IV 2300 mg, post-dosing start
  time by which mean CH50 returned to baseline: ≤ 24 h
[7]
  mean Hb from day 1 of intensive therapy: increased
[8]; 1500 and 2300 mg single IV doses
  AH50 level from 1 hr post-dosing start: undetectable levels
[8]; all PEG cohorts (200-2300 mg single IV)
  time within which decreases in mean AH50 values were detected: ≤ 1 h
[8]; all PEG groups, p<0.0001
  mean maximum decrease of AH50 compared to placebo: statistically significant larger
[8]; single IV 200 mg
  time for which decrease in mean AH50 was maintained: at least 12 hrs
[8]; single IV 600 mg
  time for which decrease in mean AH50 was maintained: ≥ 72 h
[8]; single IV 1500 mg
  time for which decrease in mean AH50 was maintained: ≥ 144 h
[9]; all 13 patients, intensive SC or IV PEG
  patients with LDH levels decreased at day 7-12: 13 patients
[9]; all evaluable patients, intensive SC or IV PEG 1080 mg
  patients with LDH levels decreased between day 1 and day 2: 8 of 12
[9]; all patients, intensive SC or IV PEG
  patients with LDH levels further decreased from day 7-12 to day 14-19: 11 of 13
[9]; intensive IV PEG
  patients with LDH levels further decreased from day 7-12 to day 14-19: 3 of 4
[9]; intensive IV PEG (single 1080 mg dose)
  patients with LDH levels decreased between day 1 and day 2: 4 of 4
[9]; intensive SC PEG
  patients with LDH levels further decreased from day 7-12 to day 14-19: 7 of 9
[9]; intensive SC PEG (1080 mg every 24 hours for 3 doses)
  patients with LDH levels decreased between day 1 and day 2: 4 of 8
[10]
  incidence of upper respiratory infections (TEAE): 12.5%

## H-GICV(6fW)QD(6fW)GAHRCTN-COOH (H-GICV[Trp(6-F)]QD[Trp(6-F)]GAHRCTN-OH; not fully specified (bridges); cysteine pairing not given here) [+G/V4(6fW)/W7(6fW)H9A+N-OH]
[1]
  Activity over compstatin: 126x
